From patent US20220235325A1, “STIMULATION OF DENDRITIC CELL ACTIVITY BY HOMOTAURINE AND ANALOGUES THEREOF” (Therapeutic Solutions International, Inc., priority 2021, published 2022)

Tests used:
NK target cell line = assay: Natural killer cell activity of PBMC plated with StemVacs dendritic cells (flow cytometry Promega cytotoxicity assay); assay type: cell-based; conditions: 10 micrograms/ml; PBMC plus StemVacs umbilical cord derived dendritic cells; 12, 24, 36 hrs (FIG. 1)
Experimental: (§1) Peripheral blood mononuclear cells where obtained by ficoll centrifugation and plated with StemVacs umbilical cord derived dendritic cells. StemVacs was generated by culture of umbilical blood adherent cells with interleukin 4 and GM-CSF for 7 days with maturation step induced by 24 hour culture TLR agonist. Assessment of natural killer cell activity was performed subsequent to culture of cells with taurine (10 micrograms/ml) or homotaurine (10 micrograms/ml) for the indicated timepoints. Cytotoxicity against NK target cell line was performed using the flow cytometry Promega assay.

[1] = system: interferon gamma production; assay: T cell activity of PBMC plated with StemVacs dendritic cells (ELISA of interferon gamma after phytohemagglutinin); assay type: cell-based; conditions: 10 micrograms/ml; PBMC plus StemVacs; 5 micrograms per ml phytohemagglutinin; 12, 24, 36 hrs (FIG. 2)
Experimental: as §1, with “StemVacs” left out, “T” for “natural killer”, “T” for “Cytotoxicity against NK target”, “activity” for “line”, “assessed by ELISA quantification of interferon gamma production after stimulation with 5 micrograms per ml of phytohemagglutinin.” for “performed using the flow cytometry Promega assay.”

monocytes = conditions: cited from earlier work
[2] = monocytes from human peripheral blood

SMILES | Ability of StemVacs to stimulate NK activity (cytotoxicity against NK target cell line) (NK target cell line) | Ability of StemVacs to stimulate T cell activity (interferon gamma production) [1] | FcgammaR-mediated cytokine production and antibody-dependent cellular cytotoxicity by monocytes (monocytes; 12 hour exposure) | Expression of ADCC associated receptors FcgammaRI, FcgammaRIIa and common gamma-subunit (monocytes; [2]) | Expression of the inhibitory FcgammaRIth molecule (monocytes; [2])
NCCCS(=O)(=O)O [Homotaurine, homotaurine] | Increases Ability of StemVacs to Stimulate NK Activity | Increases Ability of StemVacs to Stimulate T Cell Activity |  |  | 
CCOCc1nc2c(N)nc3ccccc3c2n1CC(C)(C)O [R-848] |  |  | increased | upregulation | profound downregulation
